The record followed here is ChEMBL document CHEMBL1158127, “Bioactive compounds from the gorgonian Briareum polyanthes. Correction of the structures of four asbestinane-type diterpenes” (J Nat Prod, 2006).

Experiment [1] has as its system dengue virus type 2. Description: Antiviral activity against Dengue virus type 2. It counts as functional, organism-based.
Experiment [2] concerns Venezuelan equine encephalitis virus. Description: Antiviral activity against Venezuelan equine encephalomyelitis virus. The format is functional, organism-based.
In experiment [3] the test system is Plasmodium falciparum. Briefly: Antiplasmodial activity against chloroquine-resistant Plasmodium falciparum W2. The format is functional, organism-based.
The test system of experiment [4] is Respiratory syncytial virus. Briefly: Antiviral activity against RSV type A. It counts as functional, organism-based.
Experiment [5] deals with Hepatitis B virus. Briefly: Antiviral activity against Hepatitis B virus. The format is functional, organism-based.
Experiment [6] has as its system Hepatitis C virus. Description: Antiviral activity against HCV. The format is functional, organism-based. To be noted: Hepacivirus hominis.
The test system of experiment [7] is Influenza A virus H3N2. Briefly: Antiviral activity against Influenza A virus H3N2. The format is functional, organism-based.
The subject of experiment [8] is West Nile virus. Description: Antiviral activity against West Nile virus. The format is functional, organism-based.
Experiment [9] has as its system Yellow fever virus. Description: Antiviral activity against yellow fever virus. It counts as functional, organism-based.
The test system of experiment [10] is Mycobacterium tuberculosis. Briefly: Antituberculosis activity against Mycobacterium tuberculosis H37Rv at 128 ug/mL. The format is functional.
In experiment [11] the test system is Influenza B virus. Description: Antiviral activity against Influenza B virus. It counts as functional, organism-based.
The subject of experiment [12] is Influenza A virus. Description: Antiviral activity against Influenza A virus H1N1. It counts as functional, organism-based.
For experiment [13], the system named is Human gammaherpesvirus 4. Briefly: Antiviral activity against Epstein-Barr virus. The format is functional, organism-based.
Experiment [14] has as its system CCRF-CEM. Briefly: Cytotoxicity against human CCRF-CEM cells. It counts as functional, cell-based.

In brackets after ≈: the same amount, converted by molar mass. Activity calls are given as the source filed them. The rule behind the calls is not given here.

`CC(=O)O[C@H]1[C@H]2C3CC(=O)CCC[C@]4(C)OC[C@H](C)C(C[C@H]1C)[C@@H]2C4O3` (stereo partly drawn) [NOR-ASBESTININ A]: the outcome in experiment [1], in experiment [2], in [4], in [5], in [6] and in experiment [7] was inactive. Further, the result in [8], in experiment [9], in [10], in [11] and in [12] was inactive. In [3], this compound showed an IC50 of 14 µg/mL (≈ 38.4 µM).
Consider `CC(=O)O[C@H]1[C@H]2C3/C=C(/C)[C@H](O)CC[C@]4(C)OC[C@H](C)C(C[C@H]1C)[C@@H]2C4O3` (stereo partly drawn), for which the result in experiment [1], in experiment [2], in experiment [4], in [5], in experiment [6] and in experiment [7] was inactive. In addition, the outcome in experiment [8], in experiment [9], in experiment [10], in [11] and in experiment [12] was inactive. Inhibition in experiment [3] was half-maximal at 18 µg/mL (≈ 47.6 µM) (IC50).
As to `C=C1CC2OC3[C@H]4C(C[C@@H](C)[C@@H](OC(C)=O)[C@@H]24)[C@@H](C)CO[C@@]3(C)CCC1=O` (stereo partly drawn), the result in [1], in experiment [2], in [4], in experiment [5], in [6] and in experiment [7] was inactive. Besides, the result in [8], in experiment [9], in experiment [10], in [11] and in [12] was inactive. The half-maximal inhibitory concentration (IC50) in experiment [3] amounted to 9 µg/mL (≈ 23.9 µM); in [13], 0.25 µg/mL (≈ 0.664 µM).
Regarding `CCCC(=O)O[C@]1(C)CCC2[C@@H]3C4OC(C/C(C)=C\CC[C@]4(C)OC(=O)[C@@H]2C)[C@@H]31` (stereo partly drawn) [BRIARELLIN R], the results for the IC50 in experiment [3] and in experiment [14] were 15 µg/mL (≈ 37.1 µM) and 8.9 µg/mL (≈ 22 µM), respectively. The result in [6], in experiment [7], in experiment [8], in experiment [11] and in experiment [12] was inactive. The compound also yielded an Activity in experiment [10] of 91%.
Compound `CCCC(=O)O[C@]1(C)CCC2[C@@H]3C4OC(C[C@](C)(O)[C@H](O)CC[C@]4(C)OC(=O)[C@@H]2C)[C@@H]31` (stereo partly drawn) [BRIARELLIN Q] yielded an IC50 in experiment [3] of 3 µg/mL (≈ 6.84 µM). Further, in experiment [10], the Activity turned out to be 43%.
With `C=C1CC2OC3[C@H]4C(C[C@@H](C)[C@@H](OC(C)=O)[C@@H]24)[C@@H](C)CO[C@@]3(C)CC[C@@H]1O` (stereo partly drawn), the outcome in experiment [1], in experiment [2], in experiment [4], in experiment [5], in [6] and in experiment [7] was inactive. In addition, the result in [8], in experiment [9], in experiment [10], in [11] and in experiment [12] was inactive. The same compound had a concentration for half-maximal inhibition (IC50) in [3] of 17 µg/mL (≈ 44.9 µM).
`C=C1CC2OC3[C@H]4C(C[C@@H](C)[C@@H](OC(C)=O)[C@@H]24)[C@@H](C)CO[C@@]3(C)CC[C@H]1OO` (stereo partly drawn): the outcome in experiment [1], in [2], in experiment [4], in experiment [5], in experiment [6] and in experiment [7] was inactive. The result in experiment [8], in experiment [9], in experiment [10], in [11] and in experiment [12] was inactive. In experiment [3], this compound returned an IC50 of 13 µg/mL (≈ 33 µM).
On to `C=C1CC2OC3[C@H]4C(C[C@@H](C)[C@@H](OC(C)=O)[C@@H]24)[C@@H](C)CO[C@@]3(C)CC[C@H]1O` (stereo partly drawn), for which the outcome in [1], in experiment [2], in [4], in [5], in experiment [6] and in [7] was inactive. Besides, the result in [8], in experiment [9], in [10], in experiment [11] and in [12] was inactive. Also, in [3], inhibition was half-maximal at 13 µg/mL (≈ 34.3 µM) (IC50).
Compound `CC(=O)O[C@H]1[C@H]2C3C[C@](C)(O)C(=O)CC[C@]4(C)OC[C@H](C)C(C[C@H]1C)[C@@H]2C4O3` (stereo partly drawn) had a concentration for half-maximal inhibition (IC50) in experiment [3] of 18 µg/mL (≈ 45.6 µM).
On the same count and under the same terms, in the case of `CO[C@@H]1CC[C@]2(C)OC[C@H](C)C3C[C@@H](C)[C@@H](OC(C)=O)[C@H]4C(C[C@@]1(C)O)OC2[C@@H]34` (stereo partly drawn) it was no less than 50 µg/mL.
Turning to `CO[C@@H]1CC[C@]2(C)OC[C@H](C)C3C[C@@H](C)[C@@H](OC(C)=O)[C@H]4C(C[C@H]1C)OC2[C@@H]34` (stereo partly drawn), the result in experiment [1], in [2], in experiment [4], in experiment [5], in experiment [6] and in experiment [7] was inactive. The result in experiment [8], in [9], in experiment [10], in experiment [11] and in [12] was inactive. This compound gave an IC50 in experiment [3] of 16 µg/mL (≈ 40.6 µM).
For `CCCC(=O)O[C@]1(C)CCC2[C@@H]3C(OC(CC(C)=O)[C@@H]31)[C@](C)(CCC(=O)O)OC(=O)[C@@H]2C` (stereo partly drawn), in experiment [3], inhibition was half-maximal at 20 µg/mL (≈ 44.2 µM) (IC50).
